Tests used:
Format in all cases: cell-based
[1] = molecular target: T1, Solute carrier family 22 member 12 (Homo sapiens, UniProt Q96S37); test: Inhibition of human URAT1-mediated urate uptake in HEK293 cells by competitive inhibition assay
T1 sequence (Q96S37 whole entry): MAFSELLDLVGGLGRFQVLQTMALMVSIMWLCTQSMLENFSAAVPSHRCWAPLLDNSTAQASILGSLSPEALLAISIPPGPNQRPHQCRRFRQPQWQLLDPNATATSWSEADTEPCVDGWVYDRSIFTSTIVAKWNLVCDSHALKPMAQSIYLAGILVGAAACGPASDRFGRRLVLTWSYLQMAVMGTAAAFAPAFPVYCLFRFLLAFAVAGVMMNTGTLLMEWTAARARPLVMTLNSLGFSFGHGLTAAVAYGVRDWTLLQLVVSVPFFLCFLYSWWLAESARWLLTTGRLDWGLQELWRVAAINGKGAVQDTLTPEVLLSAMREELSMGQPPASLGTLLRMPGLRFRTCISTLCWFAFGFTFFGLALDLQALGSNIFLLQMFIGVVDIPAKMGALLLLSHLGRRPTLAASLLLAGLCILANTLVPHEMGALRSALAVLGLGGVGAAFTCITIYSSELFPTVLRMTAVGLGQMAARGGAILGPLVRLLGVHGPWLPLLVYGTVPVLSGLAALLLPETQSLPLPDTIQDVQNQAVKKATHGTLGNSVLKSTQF

[2] = molecular target: T1, Solute carrier family 22 member 12; test: Inhibition of human URAT1-mediated urate uptake in HEK293 cells
[3] = molecular target: T2, URAT1 (SLC22A12) (Homo sapiens, UniProt Q96S37); test: Inhibition of human URAT1-mediated urate uptake in HEK293 cells at 2 uM; details: HEK293 cells expressing human URAT1, probe urate
T2 sequence (Q96S37 whole entry): T1 sequence (Q96S37 whole entry)

Ki [1]	IC50 [2]	inhibition at 2 µM [3]	SMILES
5.74 µM	2 µM		O=c1c(O)c(-c2ccc(O)cc2O)oc2cc(O)cc(O)c12 [MORIN]
		30%	CCCN(CCC)S(=O)(=O)c1ccc(C(=O)O)cc1 [PROBENECID]
		70%	CCc1oc2ccccc2c1C(=O)c1cc(Br)c(O)c(Br)c1 [BENZBROMARONE]
	100 µM		O=C1C(CC[S+]([O-])c2ccccc2)C(=O)N(c2ccccc2)N1c1ccccc1 (stereo not given) [SULFINPYRAZONE]
